This passage reports inhibition results from PubChem BioAssay AID2368 (The Scripps Research Institute Molecular Screening Center, 2010).

By inhibition is commonly meant the percentage by which the read-out fell short of the control.

The target of the assay is Protein phosphatase methylesterase 1 (Homo sapiens) (UniProt Q9Y570). As to the kind of experiment: PME-1 inhibitors, ABPP after gel filtration, late-stage follow-up, gel-based ABPP (AID 2368). The settings on record: PME-1 labeling, hits give high values, concentration not given here. (In gel filtration, larger molecules generally elute earlier.)

Some results are limits rather than exact numbers.

Sequence of Protein phosphatase methylesterase 1 (Homo sapiens) (Q9Y570 whole entry, looked up): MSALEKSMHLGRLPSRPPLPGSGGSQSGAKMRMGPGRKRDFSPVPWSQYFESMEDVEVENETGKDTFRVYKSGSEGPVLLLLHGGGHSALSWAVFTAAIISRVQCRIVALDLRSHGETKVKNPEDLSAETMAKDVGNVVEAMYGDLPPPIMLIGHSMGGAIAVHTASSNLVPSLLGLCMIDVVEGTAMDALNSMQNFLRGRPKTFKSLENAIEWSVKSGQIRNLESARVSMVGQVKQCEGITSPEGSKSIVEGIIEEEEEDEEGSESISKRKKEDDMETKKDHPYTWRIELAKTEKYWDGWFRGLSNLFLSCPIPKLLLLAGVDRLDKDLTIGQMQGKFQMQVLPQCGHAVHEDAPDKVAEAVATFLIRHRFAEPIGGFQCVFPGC

Take `N#C/C(=C\c1cccn1S(=O)(=O)c1cccc(C#N)c1)S(=O)(=O)c1ccc(F)cc1`: the inhibition was more than 50%.
Take `N#C/C(=C\c1cccn1S(=O)(=O)c1cccc([N+](=O)[O-])c1)S(=O)(=O)c1ccc(F)cc1`: the inhibition is more than 50%.
